Test results from article PMC12627933, “A First-In-Human Study of the SUMOylation Inhibitor Subasumstat in Patients with Advanced/Metastatic Solid Tumors or Relapsed/Refractory Hematologic Malignancies” (Cancer Research Communications, 2025).
Read-outs that look alike come from different tables or passages of the source.

Assays:
SUMO2/3 conjugates = experiment: SUMOylation pathway inhibition: decrease in SUMO2/3 conjugates in blood lymphocytes, skin and tumor; type: in vivo, human
Protocol: (§1) Blood samples for subasumstat–SUMO adduct formation and SUMO2/3 inhibition assessments were collected before dose and at 1, 4, and 8 hours after the infusion on C1D1 and C1D8. Blood samples for additional biomarker analyses were collected before dose on C1D1 and C1D8 and at 4, 8, and 24 hours after infusion on C1D1 and C1D8. Skin biopsies (used as surrogate tissue for solid tumors) were collected at screening and on C1D8 at 2 hours (±30 minutes) after end of infusion, and tumor biopsies were collected at screening and cycle 2 day 8 (C2D8; +7 days; whenever possible). In blood samples, a custom flow cytometry assay was utilized for detecting target engagement and SUMOylated protein levels in lymphocytes (including T-, B-, and NK-cell subsets). The assay included a PE-conjugated antibody specifically recognizing the SUMO–subasumstat adduct (MIL-113, anti–cysteinyl-TAK-981, Epitomics; refs. [14], [15], [22]) and an AF488-conjugated antibody recognizing SUMO2/3 conjugates (MBL International, cat. #M114-3, RRID: AB_592769). Peripheral blood cells were lysed/fixed, permeabilized (BD Biosciences), and stained with MIL-113 and M114-3 and with antibodies against CD45, CD3, CD19, CD16/CD56, and CD14. IHC assays for SUMO–subasumstat adduct and SUMO2/3 inhibition in skin biopsies and tumors were performed using MIL-113 and M114-3 antibodies. Activation of the IFNI pathway was assessed in peripheral blood by analysis of gene expression data (PanCancer IO 360 panel by NanoString for phase I and whole-transcriptome RNA sequencing data for phase II). Type I IFN gene signature was computed using geometric mean of the following genes: CCL2, CXCL10, DDX58, IRF7, ISG15, STAT1, and STAT2. These seven IFNI-regulated genes were selected prior to the trial, based on in vitro studies of the effect of subasumstat on human blood from 10 healthy donors analyzed on the NanoString PanCancer IO 360 panel. Plasma chemokines and cytokines were measured using the MesoScale Discovery platform (pro-inflammatory and chemokine panels, BioAgilytix). For assessment of NK- and T-cell activation, cells were suspended in buffer and incubated with the following monoclonal antibodies: APC-H7 mouse anti–human CD45 (BD Biosciences, cat. #560274), APC mouse anti–human CD69 (BD Biosciences, cat. #555533), BV421 mouse anti–human CD56 (BD Biosciences, cat. #562751), mouse anti–human CD16 PerCP-Cy5.5 (BD Biosciences, cat. #338440), BV510 mouse anti–human CD4 (BD Biosciences, cat. #563094), BV605 mouse anti–human CD8 (BD Biosciences, cat. #564116), and Alexa Fluor 700 anti–mouse CD3 antibody (BioLegend, cat. #100215), prior to assessment by flow cytometry using the BD Scientific FACSCanto flow cytometer (RRID: SCR_018055). Tumor PD-L1 expression level was assessed in paired tumor biopsies using the 22C3 PD-L1 IHC assay; combined positive score (CPS) was calculated for baseline and on-treatment tumor samples. The immune landscape in the tumor microenvironment (TME) was assessed using an integrated RNAscope and 27-marker MultiOmyx immunofluorescence panel.

[1] = target: T1, SUMO-activating enzyme (SAE) (Homo sapiens, UniProt Q9UBT2); experiment: Target engagement: SUMO–subasumstat adduct formation in blood lymphocytes, skin and tumor (flow cytometry, IHC); type: in vivo
T1 construct: from tissue; host or cells: patients' peripheral blood lymphocytes, skin biopsies and tumor biopsies
T1 sequence (Q9UBT2 1-640): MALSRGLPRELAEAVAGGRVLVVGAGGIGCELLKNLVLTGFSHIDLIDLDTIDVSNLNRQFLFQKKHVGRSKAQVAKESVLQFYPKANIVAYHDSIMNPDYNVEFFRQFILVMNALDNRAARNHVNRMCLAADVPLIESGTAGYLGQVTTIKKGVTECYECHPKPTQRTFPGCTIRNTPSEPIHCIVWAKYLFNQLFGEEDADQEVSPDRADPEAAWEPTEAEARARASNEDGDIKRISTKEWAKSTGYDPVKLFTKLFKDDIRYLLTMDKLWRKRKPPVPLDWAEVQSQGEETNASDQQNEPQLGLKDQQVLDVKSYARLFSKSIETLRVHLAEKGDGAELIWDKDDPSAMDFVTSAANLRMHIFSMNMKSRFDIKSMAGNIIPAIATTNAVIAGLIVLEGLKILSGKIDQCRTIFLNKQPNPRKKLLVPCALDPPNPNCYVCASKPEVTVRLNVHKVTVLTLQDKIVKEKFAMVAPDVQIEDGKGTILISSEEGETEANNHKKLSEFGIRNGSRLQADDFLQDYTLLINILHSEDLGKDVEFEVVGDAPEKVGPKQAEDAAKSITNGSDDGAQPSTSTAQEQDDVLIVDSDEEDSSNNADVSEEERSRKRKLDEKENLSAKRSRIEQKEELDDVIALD
T1 sequence (Q9UBE0 1-346 partner): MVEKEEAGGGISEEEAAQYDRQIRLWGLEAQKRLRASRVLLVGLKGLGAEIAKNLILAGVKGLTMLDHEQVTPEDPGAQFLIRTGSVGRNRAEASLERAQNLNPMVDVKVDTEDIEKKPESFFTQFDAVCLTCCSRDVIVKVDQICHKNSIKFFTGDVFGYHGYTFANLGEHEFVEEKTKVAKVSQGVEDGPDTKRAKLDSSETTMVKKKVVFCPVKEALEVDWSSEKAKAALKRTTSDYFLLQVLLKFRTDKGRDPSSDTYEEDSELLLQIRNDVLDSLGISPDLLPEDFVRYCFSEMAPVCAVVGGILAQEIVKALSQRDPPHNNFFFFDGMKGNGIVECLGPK
Protocol: as §1

[2] = tested on: MSS colorectal cancer and non-squamous NSCLC; parameters: method as in ref 18 = [18]; 18. Goel S , Ulahannan SV , Olszanski AJ , LoRusso P , Sanborn RE , Sharma S , . A phase 1b, multicenter, dose-escalation study of subasumstat (TAK-981) in combination with pembrolizumab in patients; conditions: in combination with pembrolizumab, cited from earlier work

Cc1sc(C(=O)c2cncnc2N[C@@H]2C[C@H](COS(N)(=O)=O)[C@@H](O)C2)cc1[C@@H]1NCCc2ccc(Cl)cc21 [subasumstat]
Duration of SUMO2/3 inhibition (SUMO2/3 conjugates; peripheral blood lymphocytes): at least 8 hours
Time to SUMO2/3 inhibition after end of infusion (SUMO2/3 conjugates; peripheral blood lymphocytes): ≤ 1 h
Dose from which SUMO2/3 inhibition was observed (SUMO2/3 conjugates; peripheral blood lymphocytes, dose-dependent): ≥ 40 mg
SUMO2/3 inhibition in tumor samples (SUMO2/3 conjugates; post-dose tumor samples, except two MSS colorectal cancer and one NSCLC patient): observed in most post-dose samples
Dose from which reduced SUMO2/3 levels were observed in skin (SUMO2/3 conjugates; skin biopsies on C1D8): ≥ 60 mg
Target engagement in tumor samples ([1]; all evaluated tumor samples, 8 patients 90 mg twice weekly (C2D8), 1 melanoma patient 25 mg twice weekly (C1D8)): robust target engagement
Dose level from which SUMO–subasumstat adduct formation was detected ([1]; peripheral blood lymphocytes, C1D1 and C1D8, phase I): ≥ 10 mg
Time to detection of SUMO–subasumstat adduct after end of infusion ([1]; peripheral blood lymphocytes, doses ≥10 mg): ≤ 1 h
Persistence of target engagement ([1]; peripheral blood lymphocytes, twice weekly and once weekly schedules): at least 8 hours
Dose from which adduct formation was observed in skin biopsies ([1]; skin biopsies 2 hours after the C1D8 dose): ≥ 10 mg
Antitumor activity ([2]; MSS colorectal cancer dose-expansion cohort): no activity was observed
Antitumor activity ([2]; relapsed/refractory MSS colorectal cancer and CPI-exposed non-squamous NSCLC, dose-escalation cohort): preliminary antitumor activity
